Measurements: publication PMC5991599, “Anti‐tumor efficacy of a novel CLK inhibitor via targeting RNA splicing and MYC‐dependent vulnerability” (EMBO Molecular Medicine, 2018)

How the values were obtained:
[1] = tested on: other kinases; test: KINOMEScan-based kinase selectivity assay, kinases other than CLK/DYRK1; type: binding
Description: (§1) The KINOMEScan‐based kinase selectivity assay was performed at the DiscoverX Corporation (Fremont, CA, USA). The panel of growth inhibition assay and subsequent bioinformatics analysis (Fig EV1) were performed at Eurofins Inc. (St. Charles, MO, USA), using OncoPanel 240 or 60. Details of the procedures of cell proliferation assay, caspase‐3/7 activity assay, immunoblotting, and immunohistochemistry are described in Appendix Supplementary Methods.

[2] = tested on: SUM-159 xenografts; test: In vivo anti-tumor efficacy study in SUM-159 xenografts; details: authors' response in review process file
Text: EMBO Molecular Medicine - Peer Review Process File altering the spliciosome in non transformed cells (i.e. human mammary epithelial cells or MCF10A immortalized but not transform cells)
Although alternative splicing of BCLAF1 is reported to have an additional function in colorectal cancer (Zhou et al, 2014), the reported AS variant was different from the AS variant (lacking exon […]
AS in both cancer cell lines (HCT116) and untransformed cell lines (hTERT) (Funnell et al, 2017). […]
specific to transformed cells.
BJ) had relatively low expression of CLK2 and less growth-suppressive sensitivity to T-025 (Fig […]
rendered cancer cells more sensitive to T-025. […]
short-term treatment with T-025 causes apoptosis only in cancer cells with high expression of CLK2 or with activated MYC, but not in normal tissue. Therefore, in the mouse model, intermittent […]
- Figure 4 D, E, and F: it is not specified the name of all cancer dell lines used in the study. This is […]
relevant the work. If only SKBR3 and AU565 cell lines have a high MYC CVN, and consequently are more sensitive to T-025, why did the authors use MDA-MB 468 cell line to do the experiments of Figure 2 and 3? Please clarify. In addition, confirmation in an alternative breast cancer cell line is […]

[3] = tested on: 786-O; test: Panel of growth inhibition assays (OncoPanel 240); type: cell-based; details: Homo sapiens, 786-0; 72 h; kidney cancer; read-out: IC50 (nmol/L) Oncopanel
Description: as §1
(§2) Panel of growth inhibition assay and subsequence bioinformatics analysis (at […]
(§3) A growth inhibition assay panel and subsequent bioinformatics analysis were performed at Eurofins Inc. (MO, U.S.A.) by utilizing Oncopanel240 or 60.
(§4) According to the study reports from Eurofins Inc., cells were seeded into 384 well plates at a single cell density in standardized media. After 24 hours, the test compounds were added and the plate was incubated continuously for 72 hours. Cells were then fixed and stained to visualize nuclei. The number of nuclei was counted and normalized.
(§5) Cellular response parameters were calculated using nonlinear regression to a sigmoidal single-site dose response model and the IC50 value of each cell line was calculated.
(§6) Genomic features were binned into six distinct categories, each of which was considered to be a “biomarker-positive” grouping: Mutated (non-synonymous, coding, and non-coding mutations), Amplified, Deleted, Overexpressed, Mutated or amplified (gain-of-function), and Mutated or deleted (loss-of-function). Two orthogonal significance tests were performed on each genomic feature as follows.
(§7) Student’s t-test: For each genomic feature within each of the six above categories, IC50 cell count values for biomarker-positive and biomarker-negative groups were […]

[4] = tested on: THP1; test: Panel of growth inhibition assays (OncoPanel 240); type: cell-based; details: Homo sapiens, THP-1; 72 h; leukemia; read-out: IC50 (Oncopanel, cell count)
Description: as §1, §2, §3, §4, §5, §6, §7

[5] = tested on: L428; test: Panel of growth inhibition assays (OncoPanel 240); type: cell-based; details: Homo sapiens, L-428; 72 h; lymphoma; read-out: IC50 (Oncopanel, cell count)
Description: as §1, §2, §3, §4, §5, §6, §7

[6] = tested on: DB; test: Panel of growth inhibition assays (OncoPanel 240); type: cell-based; details: Homo sapiens, 72 h, lymphoma, read-out: IC50 (Oncopanel, cell count)
Description: as §1, §2, §3, §4, §5, §6, §7

[7] = tested on: MV-4-11; test: Panel of growth inhibition assays (OncoPanel 240); type: cell-based; details: Homo sapiens, MV4-11; 72 h; leukemia; read-out: IC50 (Oncopanel, cell count)
Description: as §1, §2, §3, §4, §5, §6, §7

[8] = tested on: EM2; test: Panel of growth inhibition assays (OncoPanel 240); type: cell-based; details: Homo sapiens, EM-2; 72 h; leukemia; read-out: IC50 (Oncopanel, cell count)
Description: as §1, §2, §3, §4, §5, §6, §7

[9] = tested on: MOLT16; test: Panel of growth inhibition assays (OncoPanel 240); type: cell-based; details: Homo sapiens, MOLT-16; 72 h; leukemia; read-out: IC50 (Oncopanel, cell count)
Description: as §1, §2, §3, §4, §5, §6, §7

[10] = tested on: U266B1; test: Panel of growth inhibition assays (OncoPanel 240); type: cell-based; details: 72 h; myeloma; read-out: IC50 (Oncopanel, cell count)
Description: as §1, §2, §3, §4, §5, §6, §7

[11] = tested on: NALM6; test: Panel of growth inhibition assays (OncoPanel 240); type: cell-based; details: Homo sapiens, NALM-6; 72 h; leukemia; read-out: IC50 (Oncopanel, cell count)
Description: as §1, §2, §3, §4, §5, §6, §7

[12] = tested on: RAJI; test: Panel of growth inhibition assays (OncoPanel 240); type: cell-based; details: Homo sapiens, 72 h, lymphoma, read-out: IC50 (Oncopanel, cell count)
Description: as §1, §2, §3, §4, §5, §6, §7

[13] = tested on: 240 cancer cell lines; test: Panel of growth inhibition assays (OncoPanel 240); type: cell-based; details: hematological and solid cancer cell lines; 72 h; read-out: IC50 values, anti-proliferative activity
Description: as §1, §2, §3, §4, §5, §6, §7

[14] = tested on: HT; test: Panel of growth inhibition assays (OncoPanel 240); type: cell-based; details: Homo sapiens, 72 h, lymphoma, read-out: IC50 (Oncopanel, cell count)
Description: as §1, §2, §3, §4, §5, §6, §7

[15] = tested on: K562; test: Panel of growth inhibition assays (OncoPanel 240); type: cell-based; details: Homo sapiens, 72 h, leukemia, read-out: IC50 (Oncopanel, cell count)
Description: as §1, §2, §3, §4, §5, §6, §7

[16] = tested on: BV173; test: Panel of growth inhibition assays (OncoPanel 240); type: cell-based; details: Homo sapiens, BV-173; 72 h; leukemia; read-out: IC50 (Oncopanel, cell count)
Description: as §1, §2, §3, §4, §5, §6, §7

[17] = tested on: DAUDI; test: Panel of growth inhibition assays (OncoPanel 240); type: cell-based; details: Homo sapiens, 72 h, lymphoma, read-out: IC50 (Oncopanel, cell count)
Description: as §1, §2, §3, §4, §5, §6, §7

[18] = tested on: COLO320HSR; test: Panel of growth inhibition assays (OncoPanel 240); type: cell-based; details: Homo sapiens, COLO-320-HSR; 72 h; colorectal cancer; read-out: IC50 (nmol/L) Oncopanel
Description: as §1, §2, §3, §4, §5, §6, §7

[19] = tested on: ST486; test: Panel of growth inhibition assays (OncoPanel 240); type: cell-based; details: Homo sapiens, 72 h, lymphoma, read-out: IC50 (Oncopanel, cell count)
Description: as §1, §2, §3, §4, §5, §6, §7

Structure (SMILES): CNc1nc(NCc2ncccn2)c2c(-c3ccc4ncccc4c3)c[nH]c2n1 [T-025, N ^2‐methyl‐N ^4‐[pyrimidin‐2‐ylmethyl]‐5‐[quinolin‐6‐yl]‐7H‐pyrrolo[2,3‐d]pyrimidine‐2,4‐diamine]
- selectivity for CLK/DYRK1 over other kinases [1]: > 300 fold
- Kd ([1]; no other kinase had Kd < 30, read-out: Kd of other kinases outside of CLK and DYRK1 family): ≥ 30 nM
- anti-tumor efficacy [2]: showed significant anti-tumor properties
- IC50 [3]: 239 nmol/L
- IC50 [4]: 228 nM
- IC50 [5]: 116 nM
- IC50 [6]: 43.3 nM
- IC50 [7]: 30.1 nM
- IC50 [8]: 104 nM
- IC50 [9]: 20.6 nM
- IC50 [10]: 35.1 nM
- IC50 [11]: 52.6 nM
- IC50 [12]: 84.7 nM
- IC50 [13]: 30 to 300 nM
- IC50 [14]: 228 nM
- IC50 [15]: 129 nM
- IC50 [16]: 21.8 nM
- IC50 [17]: 52.5 nM
- IC50 [18]: 30.1 nmol/L
- IC50 [19]: 57.1 nM
